Patent US20140275090A1, “BILE ACID RECYCLING INHIBITORS FOR TREATMENT OF PRIMARY SCLEROSING CHOLANGITIS AND INFLAMMATORY BOWEL DISEASE” (Lumena Pharmaceuticals, Inc., priority 2013, published 2014)

How the values were obtained:
serum bile acids = assay: Fasting and post-prandial peak serum bile acids in children and adolescents after eight days of LUM001; assay type: in vivo, human; conditions: LUM001 treated patients
Method: The efficacy of LUM001 was determined by measuring total serum bile acids after eight days of dosing in children and adolescents under the age of eighteen. Thirty minutes before the next drug administration, at approximately 8 am in the morning, serum bile acid levels were measured. The child had refrained from food for 12 hours prior to this sample thus providing a fasted level of serum bile acid. After breakfast, serum bile acids were measured for up to the next 4 hours (8 am to noon) and the peak serum bile acid concentration noted.

fecal bile acids = assay: Fecal bile acid measurement, rats dosed 4 days; assay type: in vivo, Wistar rat; conditions: for Increase over Vehicle (Delta): fecal bile acids, rat, 4 days
Method: Male Wistar rats (Charles River Laboratories) weighing 275-300 grams were single-housed in a constant temperature environment with alternating 12 hour light and dark cycles. All animals had continuous access to a commercial rodent diet as well as water. In each study rats were randomly assigned to either vehicle or treatment groups and were administered intragastric doses of drug dissolved in aqueous 0.2% (v/v) Tween 80 (2 ml/kg body weight). The animals were dosed in the morning between 9:00 and 10:00 a.m. for four consecutive days. Fecal samples were collected on papers underneath each cage during the final 48 hour period of the study and analyzed for bile acid content.
Cage papers containing the 48-hour fecal samples were collected at approximately 9:00 a.m. on the final day and used to determine the individual fecal bile acid (FBA) concentration for each animal. Fecal samples from each rat were weighed and a weight of distilled water (1 gram/mL) equal to 2 times the total weight of feces was added to each sample container (e.g., 20 mL water to 10 grams feces). The containers were stored overnight at 4° C. Each sample was homogenized for approximately 45 seconds using a small food processor to yield a homogeneous slurry. 1.4 grams of the homogenate was weighed into 16×100 polypropylene tubes and 2.6 mL of tertiary butanol/distilled water (2:0.6) added to yield a final concentration of 50% (v/v) tertiary butanol in water. The sample was extracted by incubation for 45 minutes in a 37° C. water bath, and subjected to centrifugation at 3000×g for 13 minutes and the supernatant extract collected.
The concentration of bile acids […] in the extract was determined using a 96-well enzymatic assay system (4,5). 20 μl aliquots of each butanol extract was added to two sets of triplicate wells in a 96-well assay plate (one set on each half of the plate). Standardized sodium taurocholate solutions (0.2 and 0.9 mM) and standardized fecal extract solutions (previously made from pooled fecal samples collected from control and drug-treated rats) were analyzed in parallel to provide a bile acid standard curve and internal quality control samples, respectively. 20 μl aliquots of the sodium taurocholate standard were serially diluted to generate a standard curve and were added to two separate sets of triplicate wells.
To each well, 230 μl of reaction mixture containing 1M hydrazine hydrate, 0.1 M pyrophosphate and 0.46 mg/ml NAD was added. […] Following a 60 minute incubation at room temperature, the optical density at 340 nm was measured and the mean of each set of triplicate wells was calculated. […] A mean value for the increase in FBA for each group was determined and compared to the vehicle group used, to determine compound dosing efficacy. […]

Structure (SMILES): CCCCC1(CCCC)CS(=O)(=O)c2ccc(N(C)C)cc2[C@@H](c2ccc(OCc3ccc(C[N+]45CCN(CC4)CC5)cc3)cc2)[C@H]1O [LUM001]
- decrease in fasting serum bile acid level vs placebo (serum bile acids): 24%
- decrease in post-prandial peak serum bile acid level vs placebo (serum bile acids): 23%
- Increase over Vehicle (Delta) (fecal bile acids; Q.D. 0.002 mg/kg/day): 4.1
- Increase over Vehicle (Delta) (fecal bile acids; Q.D. 0.008 mg/kg/day): 5.9
- Increase over Vehicle (Delta) (fecal bile acids; Q.D. 0.4 mg/kg/day): 47.0
- effect on fecal bile acids (fecal bile acids; rats, all doses): significantly increased
